According to patent US9326972B2, “Use of phenylmethimazoles, methimazole derivatives, and tautomeric cyclic thiones for the treatment of autoimmune/inflammatory diseases associated with toll-like receptor overexpression” (Ohio University, priority 2004, dated 2016):

Tests used:
IFN-β promoter = IFN-β promoter luciferase reporter in FRTL-5 thyrocytes; format: cell-based, rat
Description: FIG. 5. Phenylmethimazole (CIO) and Methimazole (MMI) inhibit the ability of Poly (I:C), lipopolysaccharide (LPS) and IL-1β to increase IFN-β gene expression (Top Left) and IRF-3 transactivation (Top Right) in FRTL-5 thyrocytes. (Top Left) Cells were co-transfected with IFNβ-Luc and control vector (pRLTk-Int), then treated with or without (−) Poly (I:C) (100 μg/ml), LPS (100 ng/ml), or IL-1β (10 ng/ml) in the presence of the vehicle (DMSO) alone (−), C10, or MMI for 6 hours. Data was obtained with the Dual Luciferase Assay system. (Top Right) Cells were co-transfected with Gal4 DBD/IRF-3 and Gal4-Luc then treated with nothing (−), poly (I:C), LPS, or IL-1β as in (Top Left) in the presence of DMSO or C10 for 6 hours. Data was obtained by Luciferase assay. Also shown is a graphic depiction (Bottom) of how the cis reporting system is working. Data are representative of multiple experiments.
C10, at 0.5 mM, inhibited the ability of poly (I:C) to increase IFN-β promoter activity (luciferase luminescence; P<0.01) when incubated with FRTL-5 thyrocytes transfected with pIFN-β-luc constructs (FIG. 5 Top Left, Poly (I:C) vs untreated (−)).
Plasmids for Reporter Gene Assays. Human IRF-3 was amplified from human cDNA and cloned into pCR 2.1 by the TOPO/TA (Invitrogen, Carlsbad, Calif.) cloning method, and then sequenced. […]

[1] = system: human aortic endothelial cells (HAEC); details: cited from earlier work

Cn1c(-c2ccccc2)cnc1S [Compound C10, 5-Phenylmethimazole]
LPS- or IL-1β-increased IFN-β luciferase activity (IFN-β promoter; FRTL-5, LPS 100 ng/ml or IL-1β 10 ng/ml, 0.5 mM C-10, 5 mM MMI, P<0.05 or better): inhibited the increase
poly (I:C)-increased IFN-β promoter activity (luciferase) (IFN-β promoter; FRTL-5, Poly (I:C) 100 μg/ml, 6 hours, C10 0.5 mM, P<0.01): inhibited
cytokine-induced HAEC expression of VCAM-1 (protein and mRNA) [1]: strongly inhibits
monocytic cell adhesion to cytokine inflamed HAEC under in vitro flow conditions [1]: inhibits
E-selectin expression ([1]; cytokine-induced, HAEC): modest effect
ICAM-1 expression ([1]; cytokine-induced, HAEC): very little effect
